Measurements taken from patent US8545851B2, “Composition for improving inflammatory disease using ABH antigens” (SNU R&DB Foundation, priority 2009, dated 2013).

tested on: B antigen expression in HaCaT cells harboring B antigen; assay: Effect of ABH antigen-constituting monosaccharides and mixtures on B antigen expression, Western blotting; assay type: cell-based; conditions: HaCaT cells, 0.1, 1 and 10 μM, 24 hours
Procedure: HaCaT cells harboring B antigen was treated respectively with FGG and FGGN mixture and FG (Fucose:Galactose=1:1, H-antigen composition) mixture which compose A, B, and H antigen, and also glucose, galactose, fucose, N-acetylgalactosamine and N-acetylglucosamine which are monosaccharides that constitute A, B, and H antigen at different concentrations of 0.1, 1, and 10 μM for 24 hours. Western blotting was performed to investigate the expression of B antigen. As a result, the expression of B antigen was increased in every case above (FIG. 9).

SMILES | expression of B antigen
C[C@H](O)[C@@H](O)[C@@H](O)[C@H](O)C=O [fucose] | increased
CC(=O)N[C@H]1C(O)O[C@H](CO)[C@H](O)[C@@H]1O (stereo partly shown) [N-acetylgalactosamine] | increased
O=C[C@H](O)[C@@H](O)[C@@H](O)[C@H](O)CO [galactose] | increased
CC(=O)N[C@H]1C(O)O[C@H](CO)[C@@H](O)[C@@H]1O (stereo partly shown) [N-acetylglucosamine] | increased
